“Also recorded” adds a separate entry of the source. Like-named read-outs stand apart in the source and are kept apart here.
Experiments:
HLA A2 = type: binding, human; settings: for Mean 1 / Mean 2 / binding to HLA A2 (in words): RMA-S/A2 cells; for Mean 1: peptide and only anti-mouse secondary antibody; for Mean 1 / Mean 2: FACS mean; for Mean 2: peptide, anti-A2 Mab BB7.2 and secondary antibody; for binding to HLA A2 (in words): in vitro binding assay
[1] = test system: CD8^+ cells from immunised transgenic mice; assay: IFN-γ/CD8+ ELISpot assay after DNA immunisation of HLA-A2 transgenic mice; type: cell-based; settings: for Mean IFN-γ^+ve per 10^6 CD8^+ve cells: after subtraction of HepB negative controls; for number of IFN-γ secreting CD8^+ (in words): spleen cells of DNA immunised transgenic mice
Excerpt: Full-length C.pneumoniae and C.trachomatis genes encoding the polypeptides which contain CTL epitopes were amplified by PCR using the primers in Table 4 and cloned into plasmid expression vector pCMVKASF2-120, from which the gp120 sequence had been previously excised by treatment with NheI and SalI restriction enzymes. The chlamydial sequences were thus downstream of the tPA signal sequence.
The plasmids were used for DNA immunisation of transgenic mice expressing the human HLA-A2 gene which express a chimeric class I molecule composed of the α1 and α2 domains of HLA-A2.1 and the α3 transmembrane and cytoplasmic domains of H-2K^b.
Mice were immunised at days 0, 21 and 35 by intramuscular injection of 50μg endotoxin-free recombinant plasmid DNA. One week after the third immunisation, the animals were sacrificed, spleens were removed and CD8+ cells were purified by means of CD8α(Ly-2) Microbeads and LS Separation Columns following the technical procedures described by Miltenyi Biotec™. These CD8^+ cells were tested by Elispot assay to detect cells which secrete IFN-γ in response to given peptides. The Elispot procedure was as follows: • 1. 96-well nitrocellulose plates are coated with 5 μg/ml anti-mouse IFN-γ in 100 μl carbonate buffer, pH 9.2. Cover plate with lid and incubate overnight (o.n.) at 4° C. • 2. Discard coating antibody. Rinse plates 3 times with PBS (200 μl per rinse). Shake excess liquid from plate and pat bottom of plate with dry absorbent paper. • 3. Add 200 μl blocking solution (PBS-BSA 1%) to each well to saturate remaining binding sites and incubate 2 hours at 37° C. (or o.n. at 4° C.). • 4. Discard blocking solution, wash plate 3 times with PBS (200 μl per rinse). Shake excess liquid from plate and pat bottom of plate with dry absorbent paper. • 5. Add 100 μl complete medium and incubate 10 minutes at room temperature. Discard liquid and pat bottom of plate with dry absorbent paper. • 6. Add cells (5×10^4 CD8^+ from immunised transgenic mice and 2×10^5 irradiated spleen cells from non-immunised transgenic mice) with complete medium supplemented with the tested peptide (5, 10 or 20 μg/ml) and IL-2 (10 units/ml). • 7. Incubate 20-24 hours in a humidified 37° C., 5% CO2 incubator. • 8. Take off medium, add 200 μl per wash of ice-cold distilled water and incubate on ice for 10 minutes. Then wash ten times in wash buffer (PBS-Tween 0.05%), 2001 per wash. Shake excess liquid from plate and pat bottom of plate with dry absorbent paper. • 9. To detect IFN-γ spots, add 1 μg/ml biotinylated anti mouse IFN-γ in 100 μl in Elispot dilution buffer (PBS-BSA 1%) and incubate 2 hours at 37° C. • 10. Wash plate 3 times with wash buffer (PBS-Tween 0.05%), 200 μl per wash and 3 times with PBS without Tween (200 μl). Shake excess liquid from plate and pat bottom of plate with dry absorbent paper. • 11. Add 100 μl 1:2000 dilution of alkaline phosphatase-coupled avidin in PBS-BSA 1% (Sigma). Incubate 1 hour at 37° C. • 12. Wash plate 3 times with wash buffer (PBS-Tween 0.05%), 2001il per wash and 3 times with PBS without Tween (200 μl). Shake excess liquid from plate and pat bottom of plate with dry absorbent paper. • 13. Spots of […] secreting cells are visualised by adding 50 μl of the ready-to-use substrate BCIP/NBT (Sigma) dissolved in water. The reaction is stopped after 45 minutes at 37° C. by several washes with distilled water.
Values are shown after subtraction of HepB negative controls.

| Sequence | High - B (HLA A2) | Δ Mean (HLA A2) | Mean 1 (HLA A2; 10 μM peptide) | Mean 2 (HLA A2; 10 μM peptide) | binding to HLA A2 (in words) (HLA A2) | Mean IFN-γ^+ve per 10^6 CD8^+ve cells ([1]; peptide dose 5 μg/ml) [per 10^6 CD8^+ve cells] | Mean IFN-γ^+ve per 10^6 CD8^+ve cells ([1]; peptide dose 10 μg/ml) [per 10^6 CD8^+ve cells] | Mean IFN-γ^+ve per 10^6 CD8^+ve cells ([1]; peptide dose 20 μg/ml) [per 10^6 CD8^+ve cells] | number of IFN-γ secreting CD8^+ (in words) [1] | Mean 1 (HLA A2; 100 μM peptide) | Mean 2 (HLA A2; 100 μM peptide) | ΔMean at high concentrations of peptide (in words) (HLA A2; high peptide concentrations, non-homogeneous fluorescent signal, most likely non-specific effects) |
| --- | --- | --- | --- | --- | --- | --- | --- | --- | --- | --- | --- | --- |
| SITVFRWLV [CH58] | −15 | 145 | 155 | 300 | negative results | 1046 | 980 | 986 | well above background levels; also recorded: strongly positive |  |  |  |
| GLTEEIDYV [CH10] | 139 | 385 | 202 | 587 | bind to HLA A2 | 226 | 233.3 | 200 | well above background levels |  |  |  |
| YLLEEIYTV [CH6] | 130 | 376 | 198 | 574 | bind to HLA A2 | 106.8 | 486.8 | 266.6 | well above background levels |  |  |  |
| YVFDRILKV [CH13] | 119 | 365 |  |  | bind to HLA A2 | 466.8 | 700 | 540 | well above background levels | 217 | 582 |  |
| YMDNNLFYV [CH7] | 102 | 348 | 203 | 551 | bind to HLA A2 | 366 | 400 | 433 | well above background levels |  |  | Very low ΔMean values |
